Source: the NIST ThermoML archive (doi:10.1016/j.fluid.2011.11.028)
Numbers after ± are expanded uncertainties.

Legend:
[1] = cn = amount concentration of the nth substance listed, in mol/dm3; conditions: 298.15 K, 101 kPa, Liquid, Alternating current cell with electrodes
[2] = mn = molality of the nth substance listed, in mol/kg; conditions: 298.15 K, 101 kPa, Liquid; for viscosity: Capillary tube (Ostwald / Ubbelohde) method; for mass density: Vibrating tube method

CCCCCCCC[n+]1ccn(C)c1.[Cl-] [1-methyl-3-octylimidazolium chloride] + O
[1]
Conditions	molar conductivity [S·m2/mol]
c1 = 0.0003264	0.0101 ± 0.0004
c1 = 0.000434	0.0101 ± 0.0004
c1 = 0.0005416	0.01 ± 0.0004
c1 = 0.0006484	0.01 ± 0.0004
c1 = 0.0007536	0.01 ± 0.0004
c1 = 0.0008878	0.00997 ± 0.0004
c1 = 0.001103	0.00995 ± 0.0004
c1 = 0.001269	0.00993 ± 0.0004
c1 = 0.001538	0.0099 ± 0.0004
c1 = 0.001689	0.00989 ± 0.0004
c1 = 0.001863	0.00987 ± 0.0004

CCCCn1cc[n+](C)c1.[Cl-] [1-butyl-3-methylimidazolium chloride] + O
[1]
Conditions	molar conductivity [S·m2/mol]
c1 = 0.0004734	0.0107 ± 0.00043
c1 = 0.0006936	0.0106 ± 0.00042
c1 = 0.0008909	0.0106 ± 0.00042
c1 = 0.001113	0.0105 ± 0.00042
c1 = 0.001311	0.0105 ± 0.00042
c1 = 0.001497	0.0105 ± 0.00042
c1 = 0.00167	0.0105 ± 0.00042
c1 = 0.001839	0.0104 ± 0.00042
c1 = 0.001984	0.0104 ± 0.00042
c1 = 0.002099	0.0104 ± 0.00042

O=C[C@H](O)[C@@H](O)[C@H](O)[C@H](O)CO [D-glucose] + O
[2]
Conditions	mass density [kg/m3]	viscosity [mPa·s]
m1 = 0.2	1010.39 ± 0.14	0.974 ± 0.007
m1 = 0.4	1023.12 ± 0.16	1.066 ± 0.007
m1 = 0.6	1035.32 ± 0.2	1.166 ± 0.008
m1 = 0.8	1046.92 ± 0.23	1.273 ± 0.009
m1 = 1	1057.99 ± 0.26	1.385 ± 0.01
m1 = 1.2	1068.59 ± 0.29	1.501 ± 0.011

O=C[C@H](O)[C@@H](O)[C@H](O)CO [D-xylose] + O
[2]
Conditions	mass density [kg/m3]	viscosity [mPa·s]
m1 = 0.2	1007.79 ± 0.06	0.953 ± 0.007
m1 = 0.4	1018.1 ± 0.09	1.022 ± 0.007
m1 = 0.6	1028.02 ± 0.13	1.096 ± 0.008
m1 = 0.8	1037.53 ± 0.16	1.175 ± 0.008
m1 = 1	1046.69 ± 0.19	1.258 ± 0.009
m1 = 1.2	1055.41 ± 0.22	1.344 ± 0.009

O=C[C@H](O)[C@@H](O)[C@@H](O)[C@H](O)CO [(+)-galactose] + O
[2]
Conditions	mass density [kg/m3]	viscosity [mPa·s]
m1 = 0.2	1010.73 ± 0.07	0.97 ± 0.007
m1 = 0.4	1023.81 ± 0.11	1.06 ± 0.007
m1 = 0.6	1036.28 ± 0.16	1.16 ± 0.008
m1 = 0.8	1048.23 ± 0.2	1.267 ± 0.009
m1 = 1	1059.6 ± 0.2	1.381 ± 0.01
m1 = 1.2	1070.53 ± 0.27	1.5 ± 0.011

CCCCCCn1cc[n+](C)c1.[Cl-] [1-hexyl-3-methylimidazolium chloride] + O
[1]
Conditions	molar conductivity [S·m2/mol]
c1 = 0.0001239	0.0103 ± 0.00041
c1 = 0.0002407	0.0103 ± 0.00041
c1 = 0.0003449	0.0102 ± 0.00041
c1 = 0.0004557	0.0102 ± 0.00041
c1 = 0.0005824	0.0102 ± 0.00041
c1 = 0.0007219	0.0101 ± 0.0004
c1 = 0.0008733	0.0101 ± 0.0004
c1 = 0.0009879	0.0101 ± 0.0004
c1 = 0.001214	0.0101 ± 0.0004
c1 = 0.001417	0.01 ± 0.0004
c1 = 0.001669	0.01 ± 0.0004
c1 = 0.001927	0.00999 ± 0.0004

O=C[C@H](O)[C@H](O)[C@H](O)CO [D-ribose] + O
[2]
Conditions	mass density [kg/m3]	viscosity [mPa·s]
m1 = 0.2	1007.85 ± 0.06	0.949 ± 0.007
m1 = 0.4	1018.22 ± 0.09	1.011 ± 0.007
m1 = 0.6	1028.18 ± 0.13	1.077 ± 0.007
m1 = 0.8	1037.77 ± 0.16	1.145 ± 0.008
m1 = 1	1046.98 ± 0.19	1.215 ± 0.008
m1 = 1.2	1055.89 ± 0.22	1.278 ± 0.009

CCCCCCCCCCn1cc[n+](C)c1.[Cl-] [1-decyl-3-methylimidazolium chloride] + O
[1]
Conditions	molar conductivity [S·m2/mol]
c1 = 0.0001226	0.00997 ± 0.0004
c1 = 0.0002378	0.00993 ± 0.0004
c1 = 0.0003622	0.0099 ± 0.0004
c1 = 0.0004428	0.00987 ± 0.0004
c1 = 0.0005678	0.00984 ± 0.00039
c1 = 0.000679	0.00981 ± 0.00039
c1 = 0.0007671	0.0098 ± 0.00039
c1 = 0.0008693	0.00978 ± 0.00039
c1 = 0.001044	0.00975 ± 0.00039
c1 = 0.001192	0.00974 ± 0.00039
c1 = 0.001374	0.00972 ± 0.00039
c1 = 0.00153	0.0097 ± 0.00039
